Target: HIV-2 protease (Human immunodeficiency virus 2)
Assay: Tested for the inhibition of HIV-2 protease

CCC(C)[C@H](NC(=O)[C@@H](C[C@H](O)[C@H](CC1CCCCC1)NC(=O)[C@H](CC(N)=O)NC(=O)c1ccc2ccccc2n1)C(C)C)C(=O)NCc1ccccn1 (stereo partly drawn) [(S)-N*1*-((1S,2S,4S)-1-Cyclohexylmethyl-2-hydroxy-5-methyl-4-{(S)-2-methyl-1-[(pyridin-2-ylmethyl)-carbamoyl]-butylcarbamoyl}-hexyl)-2-[(quinoline-2-carbonyl)-amino]-succinamide]
Ki: 65 nM
